Test results taken from US10512644B2, “Oligomer-opioid agonist conjugates” (Nektar Therapeutics, priority 2007, dated 2019).
Like-named read-outs stand apart in the source and are kept apart here.

How the values were obtained:
[1] = in vivo; settings: rat, iv, 25 mg/kg
[2] = target: T1, recombinant human kappa opioid receptor (Homo sapiens (Human), UniProt P41145); assay: biochemical; settings: agonist mode; read-out: Kappa Agonist EC50, GTP-γS Binding
Protocol: (§4) The reaction is initiated by 0.3 nM [^35S]GTPγS for an additional 30 minutes incubation period. Test compound-induced increase of [^35S]GTPγS binding by 50 percent or more (≥50%) relative to the receptor subtype-specific agonist response indicates possible opiate receptor agonist activity.

[3] = target: T2, mu opioid receptor (Homo sapiens (Human), UniProt P35372); assay: biochemical; settings: antagonist mode vs 1 μM DAMGO; read-out: Mu Antagonist IC50, GTP-γS Binding
Protocol: as §4

[4] = target: T1, recombinant human kappa opioid receptor; assay: cell-based; format: binding; settings: whole CHO cells, 0.5 nM 3H Diprenorphine; read-out: Ki at KAPPA receptors
Protocol: (§1) Using conventional receptor binding assay techniques, several molecules were assayed to determine binding activity at kappa, mu and delta opioid subtypes of opioid receptors.
(§2) Cells were plated in 24 well plates at a density of 0.2-0.3*10^6 cells/well and washed with assay buffer containing 50 mM Tris.HCl and 5 mM MgCl2 (pH 7.4). Competition binding assays were conducted in whole cells incubated with increasing concentrations of test compounds in the presence of appropriate concentration of radioligand. 0.5 nM ^3H Naloxone, 0.5 nM ^3H Diprenorphine and 0.5 nM ^3H DPDPE were used as the competing radioligands for mu, kappa and delta receptors respectively. Incubations were carried out for two hours at room temperature using triplicate wells at each concentration. At the end of the incubation, cells were washed with 50 mM Tris HCl (pH 8.0), solubilized with NaOH and bound radioactivity was measured using a scintillation counter.
(§3) Specific binding is determined by subtraction of the cpm bound in the presence of 50-100× excess of cold ligand. Binding data assays were analyzed using GraphPad Prism 4.0 and IC50 is generated by non-linear regression from dose-response curves.

[5] = target: T2, mu opioid receptor; assay: cell-based; format: binding; settings: whole CHO cells, 0.5 nM 3H Naloxone; read-out: Ki at MU Receptors
Protocol: as §1, §2, §3

[6] = target: recombinant human delta opioid receptor (Homo sapiens (Human), UniProt P41143); assay: Radioligand competition binding in whole CHO cells, delta opioid receptor (3H DPDPE)
Protocol: as §1, §2, §3

[7] = test system: CD-1 male mice (phenylquinone-induced writhing, visceral pain); assay: Phenylquinone writhing analgesic assay; format: in vivo; settings: mPEGn-O-HydroxyCodone series, writhing 35-45 min after pretreatment
Protocol: Mice were treated according to standard protocols. Mice were given a single “pretreatment” dose of a compound lacking covalent attachment of a water-soluble, non-peptidic oligomer (i.e., non-PEG oligomer-modified parent molecule), a corresponding version comprising the compound covalently attached to a water-soluble, non-peptidic oligomer (i.e., the conjugate), or control solution (IV, SC, IP or orally) thirty minutes prior to the administration of the phenylquinone (PQ) solution. Each animal was given an IP injection of an irritant (phenylquinone, PQ) that induces “writhing” which may include: contractions of the abdomen, twisting and turning of the trunk, arching of the back, and the extension of the hindlimbs. Each animal was given an IP injection of PQ (1 mg/kg PQ, 0.1 mL/10 g bodyweight). After the injection, the animals were returned to their observation enclosure and their behavior was observed. Contractions were counted between 35 and 45 minutes after the “pretreatment”. The animals were used once. Each tested article was dosed at a range between 0.1 and 100 mg/kg (n=5-10 animals/dose).

[8] = target: T2, mu opioid receptor; format: binding; settings: mean IC50 ratio, ↓ = lower affinity
Protocol: Using conventional in vitro mu opioid receptor binding affinity assays, IC50 values were determined for each of alpha-6-mPEGn-O-hydrocodonol compounds.

[9] = Plasma pharmacokinetics after intravenous dosing in male Sprague-Dawley rats; settings: IV 1 mg/kg, PEGylated hydroxycodone
[10] = target: cloned human mu opioid receptor (Homo sapiens (Human), UniProt P35372); format: cell-based; settings: inhibition of cAMP formation, 3 μM forskolin, whole cells
Protocol: The efficacy of the various PEG-opioid conjugates was measured by their ability to inhibit cAMP formation following receptor activation. Studies were conducted in CHO cells heterologously expressing the cloned human mu, kappa or delta opioid receptors. cAMP was measured using a cAMP HiRange homogenous time-resolved fluorescence assay (HTRF Assay), that is based on a competitive immunoassay principle (Cisbio, Cat.#62AM6PEC).
Briefly, suspensions of cells expressing either the mu, kappa or delta opioid receptors were prepared in buffer containing 0.5 mM isobutyl-methyl xanthine (IBMX). […] EC50 values were calculated for each compound from a sigmoidal dose-response plot of concentrations versus maximum response. To determine if the compounds behaved as full or partial agonists in the system, the maximal response at the highest tested concentrations of compounds were compared to that produced by a known full agonist.

Chain of recombinant human delta opioid receptor (P41143 whole entry, looked up): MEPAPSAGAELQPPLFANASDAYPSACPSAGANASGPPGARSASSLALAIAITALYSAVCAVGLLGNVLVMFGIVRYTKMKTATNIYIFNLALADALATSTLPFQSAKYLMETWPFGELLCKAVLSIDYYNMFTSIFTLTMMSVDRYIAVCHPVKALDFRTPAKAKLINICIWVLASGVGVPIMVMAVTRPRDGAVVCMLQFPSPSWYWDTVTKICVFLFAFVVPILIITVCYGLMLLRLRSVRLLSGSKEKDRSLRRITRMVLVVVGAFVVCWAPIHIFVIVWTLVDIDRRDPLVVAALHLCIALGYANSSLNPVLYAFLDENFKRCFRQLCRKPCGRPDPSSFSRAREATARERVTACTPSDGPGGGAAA

## COCCOCCOCCO[C@H]1CC[C@@]2(O)[C@H]3Cc4ccc(O)c5c4[C@@]2(CCN3CC2CCC2)[C@H]1O5 [6-O-mPEG3-Nalbuphine, 6-O-mPEG3-nalbuphine]
[1]
  Kp at 1 h: 0.23
[2]
  EC50: 26.8 nM
[3]
  IC50: 398 nM
[4]
  Ki: 218 nM
[5]
  Ki: 27.4 nM
[6]
  Ki: 163 nM

## COCCOCCOCCOCCO[C@H]1CC[C@@]2(O)[C@H]3Cc4ccc(O)c5c4[C@@]2(CCN3CC2CCC2)[C@H]1O5 [6-O-mPEG4-Nalbuphine, 6-O-mPEG4-nalbuphine]
[5]
  Ki: 17.5 nM
[6]
  Ki: 149 nM

## COc1ccc2c3c1O[C@H]1C(=O)CC[C@@]4(O)[C@@H](C2)N(C)CC[C@]314 [Oxycodone, oxycodone, reference compound]
[7]; Mus musculus, read-out: ED50
  ED50: 0.619 mg/kg

## COc1ccc2c3c1O[C@H]1[C@@H](O)CC[C@H]4[C@@H](C2)N(C)CC[C@@]341 [α-6-Hydrocodonol, 6-hydrocodonol, reference compound]
[8]
  Fold Change vs. Hydrocodone: 7.50 ↓

## COCCO[C@H]1CC[C@H]2[C@H]3Cc4ccc(OC)c5c4[C@@]2(CCN3C)[C@H]1O5 [α-6-mPEG1-O-Hydrocodonol]
[8]
  Fold Change vs. Hydrocodone: 6.03 ↓

## COCCO[C@H]1CC[C@@]2(O)[C@H]3Cc4ccc(OC)c5c4[C@@]2(CCN3C)[C@H]1O5 [α-6-mPEG1-O-Hydroxycodone, α-6-mPEG1-O-hydroxycodone]
[7]
  ED50: 6.064 mg/kg
[9]
  mean exposure (AUC) as compared to oxycodone: slightly lower mean exposure

## COCCOCCO[C@H]1CC[C@H]2[C@H]3Cc4ccc(OC)c5c4[C@@]2(CCN3C)[C@H]1O5 [α-6-mPEG2-O-Hydrocodonol]
[8]
  Fold Change vs. Hydrocodone: 5.84 ↓

## COCCOCCO[C@H]1CC[C@@]2(O)[C@H]3Cc4ccc(OC)c5c4[C@@]2(CCN3C)[C@H]1O5 [α-6-mPEG2-O-Hydroxycodone, α-6-mPEG2-O-hydroxycodone]
[9]
  mean exposure (AUC) as compared to oxycodone: slightly lower mean exposure

## COCCOCCOCCO[C@H]1CC[C@H]2[C@H]3Cc4ccc(OC)c5c4[C@@]2(CCN3C)[C@H]1O5 [α-6-mPEG3-O-Hydrocodonol]
[8]
  Fold Change vs. Hydrocodone: 5.87 ↓

## COCCOCCOCCOCCO[C@H]1CC[C@H]2[C@H]3Cc4ccc(OC)c5c4[C@@]2(CCN3C)[C@H]1O5 [α-6-mPEG4-O-Hydrocodonol]
[8]
  Fold Change vs. Hydrocodone: 7.14 ↓

## COCCOCCOCCOCCO[C@H]1CC[C@@]2(O)[C@H]3Cc4ccc(OC)c5c4[C@@]2(CCN3C)[C@H]1O5 [α-6-mPEG4-O-Hydroxycodone, α-6-mPEG4-O-hydroxycodone]
[7]
  ED50: 17.31 mg/kg
[9]
  mean exposure (AUC) as compared to oxycodone: slightly lower mean exposure

## COCCOCCOCCOCCOCCO[C@H]1CC[C@H]2[C@H]3Cc4ccc(OC)c5c4[C@@]2(CCN3C)[C@H]1O5 [α-6-mPEG5-O-Hydrocodonol]
[8]
  Fold Change vs. Hydrocodone: 6.20 ↓

## COCCOCCOCCOCCOCCOCCO[C@H]1CC[C@H]2[C@H]3Cc4ccc(OC)c5c4[C@@]2(CCN3C)[C@H]1O5 [α-6-mPEG6-O-Hydrocodonol]
[8]
  Fold Change vs. Hydrocodone: 11.12 ↓

## COCCOCCOCCOCCOCCOCCO[C@H]1CC[C@@]2(O)[C@H]3Cc4ccc(OC)c5c4[C@@]2(CCN3C)[C@H]1O5 [α-6-mPEG6-O-Hydroxycodone, α-6-mPEG6-O-hydroxycodone]
[9]
  mean exposure (AUC) as compared to oxycodone: comparable mean exposure

## COCCOCCOCCOCCOCCOCCOCCO[C@H]1CC[C@H]2[C@H]3Cc4ccc(OC)c5c4[C@@]2(CCN3C)[C@H]1O5 [α-6-mPEG7-O-Hydrocodonol]
[8]
  Fold Change vs. Hydrocodone: 26.32 ↓

## COCCOCCOCCOCCOCCOCCOCCO[C@H]1CC[C@@]2(O)[C@H]3Cc4ccc(OC)c5c4[C@@]2(CCN3C)[C@H]1O5 [α-6-mPEG7-O-Hydroxycodone, α-6-mPEG7-O-hydroxycodone]
[9]
  mean exposure (AUC) as compared to oxycodone: higher mean exposure

## COCCOCCOCCOCCOCCOCCOCCOCCO[C@H]1CC[C@H]2[C@H]3Cc4ccc(OC)c5c4[C@@]2(CCN3C)[C@H]1O5 [α-6-mPEG8-O-Hydrocodonol]
[8]
  Fold Change vs. Hydrocodone: 40.10 ↓

## COCCOCCOCCOCCOCCOCCOCCOCCOCCO[C@H]1CC[C@H]2[C@H]3Cc4ccc(OC)c5c4[C@@]2(CCN3C)[C@H]1O5 [α-6-mPEG9-O-Hydrocodonol]
[8]
  Fold Change vs. Hydrocodone: 16.30 ↓

## α-6-hydroxycodone
[10]
  EC50: 3160 nM
